# In patent US10894085B2, “System for thermotherapy treatment or prevention of antimicrobial resistant or biofilm infections” (FUNDACIÓ HOSPITAL UNIVERSITARI VALL D'HEBRON—INSTITUT DE …, priority 2016, dated 2021):
# Read-outs that look alike come from different tables or passages of the source.
# Key:
# Assay type in all cases: cell-based
# [1] = tested on: Acinetobacter baumannii isogenic strains; assay: microbe, parasite or virus in culture; settings: for MIC: Acinetobacter baumannii
# [2] = tested on: Klebsiella pneumoniae strains; assay: Antibiotic susceptibility (CLSI category) of K. pneumoniae clinical isolates; as to Antibiotic susceptibility and clinical category (CLSI breakpoint): key: S, susceptible; R, resistant; I, intermediate
# [3] = tested on: Pseudomonas aeruginosa strains; assay: Susceptibility (MIC, CLSI category) of P. aeruginosa clinical isolates; as to clinical category (CLSI breakpoint): key: S, susceptible; R, resistant; I, intermediate
# K. pneumoniea = assay: MIC by broth microdilution (Table 4), K. pneumoniae
# Method: (§1) The minimum inhibitory concentration (MIC) values were determined by broth microdilution method according to “Methods for Dilution Antimicrobial Susceptibility Tests for Bacteria That Grow Aerobically: Approved Standard M7-A7. CLSI, Wayne, Pa., USA, 2006” Colistin and amikacin free drugs were evaluated to compare the efficacy of nanoparticles. MIC was evaluated in Pa46, Pa1016, Kp1, Kp4, Abl4, Ab4256, MRSA 15, MRSA 16, SE14 an SE94 strains. ATCC P. aeruginosa 27853, ATCC E. coli 25922 and ATCC A. baumannii 19606 were used as quality control.
# A. baumannii = assay: MIC by broth microdilution (Table 4), A. baumannii
# Method: as §1
# [4] = tested on: methicillin-resistant S. aureus; assay: MIC by broth microdilution (Table 4), MRSA; settings: strain MRSA15
# Method: as §1
# P. aeruginosa = assay: MIC by broth microdilution (Table 4), P. aeruginosa
# Method: as §1
# S. epidermidis = assay: MIC by broth microdilution (Table 4), S. epidermidis
# Method: as §1
# [5] = read-out: MIC values, strain Abl1 (ST103)
# [6] = read-out: MIC values, strain Abl4 (ST2)
# [7] = read-out: MIC values, strain Abl4256 (ST38)
# [8] = strain Kp1 (XDR, CTX-M, OXA-48)
# [9] = Pseudomonas aeruginosa, strain Pa46 (ST111, XDR, VIM-2), read-out: MIC
# [10] = Pseudomonas aeruginosa, strain Pa54 (ST111, XDR, VIM-2), read-out: MIC
# [11] = Pseudomonas aeruginosa, strain Pa1016 (ST175, XDR), read-out: MIC
compound,measurement,setting,value
"CN(C)c1cc(NC(=O)CNC(C)(C)C)c(O)c2c1C[C@H]1C[C@H]3[C@H](N(C)C)C(O)=C(C(N)=O)C(=O)[C@@]3(O)C(O)=C1C2=O [TIG, tigecycline]",MIC,[1]; [5],2 µg/mL
same,MIC,[1]; [6],4 µg/mL
same,MIC,[1]; [7],0.5 µg/mL
same,susceptibility,[1]; strain AbII (ST103),susceptible
same,susceptibility,[1]; strain Abl4 (ST2),susceptible
"CC(C)(O/N=C(\C(=O)N[C@@H]1C(=O)N2C(C(=O)[O-])=C(C[n+]3ccccc3)CS[C@H]12)c1csc(N)n1)C(=O)O [CAZ, ceftazidime]",Antibiotic susceptibility and clinical category (CLSI breakpoint),[2]; [8],R
same,Antibiotic susceptibility and clinical category (CLSI breakpoint),"[2]; strain Kp2 (XDR, CTX-M, NDM)",R
same,Antibiotic susceptibility and clinical category (CLSI breakpoint),"[2]; strain Kp3 (XDR, KPC)",R
same,Antibiotic susceptibility and clinical category (CLSI breakpoint),"[2]; strain Kp4 (XDR, AmpC)",R
same,MIC,[1]; [5],≥ 64 µg/mL
same,MIC,[1]; [6],≥ 64 µg/mL
same,MIC,[1]; [7],< 8 µg/mL
"C[C@@H](O)[C@H]1C(=O)N2C(C(=O)O)=C(S[C@@H]3CN[C@H](C(=O)N(C)C)C3)[C@H](C)[C@H]12 [MEM, meropenem]",Antibiotic susceptibility and clinical category (CLSI breakpoint),[2]; [8],R
same,Antibiotic susceptibility and clinical category (CLSI breakpoint),"[2]; strain Kp2 (XDR, CTX-M, NDM)",R
same,Antibiotic susceptibility and clinical category (CLSI breakpoint),"[2]; strain Kp3 (XDR, KPC)",R
same,Antibiotic susceptibility and clinical category (CLSI breakpoint),"[2]; strain Kp4 (XDR, AmpC)",R
same,MIC,[1]; [5],≥ 16 µg/mL
same,MIC,[1]; [6],≥ 16 µg/mL
same,MIC,[1]; [7],> 16 µg/mL
"NC[C@H]1O[C@H](O[C@H]2[C@H](O)[C@@H](O[C@H]3O[C@H](CO)[C@@H](O)[C@H](N)[C@H]3O)[C@H](N)C[C@@H]2N)[C@H](N)C[C@@H]1O [TOB, tobramycin]",MIC,[3]; [9],64 µg/mL
same,MIC,[3]; [10],128 µg/mL
same,MIC,[3]; [11],16 µg/mL
same,clinical category (CLSI breakpoint),[3]; strain Pa46,R
same,clinical category (CLSI breakpoint),[3]; strain Pa54,R
same,clinical category (CLSI breakpoint),[3]; strain Pa1016,R
"CC1(C)S[C@@H]2[C@H](NC(=O)[C@H](N)c3ccccc3)C(=O)N2[C@H]1C(=O)O [AMP, ampicillin]",Antibiotic susceptibility and clinical category (CLSI breakpoint),[2]; [8],R
same,Antibiotic susceptibility and clinical category (CLSI breakpoint),"[2]; strain Kp2 (XDR, CTX-M, NDM)",R
same,Antibiotic susceptibility and clinical category (CLSI breakpoint),"[2]; strain Kp3 (XDR, KPC)",R
same,Antibiotic susceptibility and clinical category (CLSI breakpoint),"[2]; strain Kp4 (XDR, AmpC)",R
"C[C@H]1[C@H](NC(=O)/C(=N\OC(C)(C)C(=O)O)c2csc(N)n2)C(=O)N1S(=O)(=O)O [ATM, aztreonam]",MIC,[3]; [9],16 µg/mL
same,MIC,[3]; [10],32 µg/mL
same,MIC,[3]; [11],32 µg/mL
colistin,MIC,K. pneumoniea; strain Kp1,1 µg/mL
same,MIC,K. pneumoniea; strain Kp4,0.125 to 0.25 µg/mL
same,MIC,A. baumannii; strain Ab4256,0.25 µg/mL
same,MIC,A. baumannii; strain Abl4,1 µg/mL
same,MIC,[4],>128 µg/mL
same,susceptibility,[2]; strain Kp1,susceptible
same,Antibiotic susceptibility and clinical category (CLSI breakpoint),[2]; [8],S
same,susceptibility,[2]; strain Kp2,susceptible
same,Antibiotic susceptibility and clinical category (CLSI breakpoint),"[2]; strain Kp2 (XDR, CTX-M, NDM)",S
same,susceptibility,[2]; strain Kp3,susceptible
same,Antibiotic susceptibility and clinical category (CLSI breakpoint),"[2]; strain Kp3 (XDR, KPC)",S
same,susceptibility,[2]; strain Kp4,susceptible
same,Antibiotic susceptibility and clinical category (CLSI breakpoint),"[2]; strain Kp4 (XDR, AmpC)",S
same,MIC,P. aeruginosa; strain Pa46,0.5 to 1 µg/mL
same,MIC,P. aeruginosa; strain Pa1016,0.5 to 1 µg/mL
same,susceptibility,[1]; strain AbII (ST103),susceptible
same,MIC values,[1]; strain Abl1 (ST103),<=0.5 mg/L
same,MIC values,[1]; strain Abl4 (ST2),<=0.5 mg/L
same,susceptibility,[1]; strain Abl4 (ST2),susceptible
same,MIC values,[1]; strain Abl4256 (ST38),0.25 µg/mL
same,MIC,S. epidermidis; strain SE14,32 to 64 µg/mL
same,MIC,S. epidermidis; strain SE94,32 µg/mL
same,clinical category (CLSI breakpoint),[3]; strain Pa46,S
same,susceptibility,[3]; strain Pa46,susceptible
same,MIC,"[3]; strain Pa46 (ST111, XDR, VIM-2)",0.5 µg/mL
same,clinical category (CLSI breakpoint),[3]; strain Pa54,S
same,susceptibility,[3]; strain Pa54,susceptible
same,MIC,"[3]; strain Pa54 (ST111, XDR, VIM-2)",0.5 µg/mL
same,clinical category (CLSI breakpoint),[3]; strain Pa1016,S
same,susceptibility,[3]; strain Pa1016,susceptible
same,MIC,"[3]; strain Pa1016 (ST175, XDR)",1 µg/mL
